Assay results as given in PubChem BioAssay (NCI).
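Five concentrations, 48 hours, 96-well plates. GI50 marks 50% less growth. TGI denotes the concentration required for complete inhibition of growth.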

Assays:
Test in all cases: growth of human tumour cells (NCI), 48 h
HS 578T breast = test system: HS 578T breast
786-0 renal = test system: 786-0 renal
NCI-H23 lung = test system: NCI-H23 lung
M14 melanoma = test system: M14 melanoma
SK-MEL-28 melanoma = test system: SK-MEL-28 melanoma
HL-60(TB) leukemia = test system: HL-60(TB) leukemia
HOP-92 NSCLC = test system: HOP-92 NSCLC
MDA-N = test system: MDA-N
OVCAR-4 ovarian = test system: OVCAR-4 ovarian
RPMI-8226 leukemia = test system: RPMI-8226 leukemia
PC-3 prostate = test system: PC-3 prostate

CN(C)C(=O)O/N=C1/C(c2c(O)[nH]c3ccccc23)=Nc2ccccc21
TGI (HS 578T breast): 40.2 µM
TGI (786-0 renal): 21.8 µM
TGI (NCI-H23 lung): > 100 µM
TGI (M14 melanoma): > 100 µM
TGI (SK-MEL-28 melanoma): > 100 µM
TGI (HL-60(TB) leukemia): > 100 µM
TGI (HOP-92 NSCLC): 33 µM
TGI (MDA-N): > 100 µM
TGI (OVCAR-4 ovarian): 33.1 µM
TGI (RPMI-8226 leukemia): > 100 µM

CCOC(=O)C1(C/C=C/CBr)Cc2ccccc2C1=O (configuration not stated)
TGI (HS 578T breast): 24.4 µM
TGI (PC-3 prostate): 19.2 µM
TGI (786-0 renal): 25.8 µM
TGI (NCI-H23 lung): 4.47 µM
TGI (M14 melanoma): 11.6 µM
TGI (SK-MEL-28 melanoma): 20.8 µM
TGI (HL-60(TB) leukemia): > 100 µM
TGI (MDA-N): 6.37 µM
TGI (OVCAR-4 ovarian): 6.02 µM
TGI (RPMI-8226 leukemia): 4.88 µM

COc1ccc(C2CC(c3c(O)ccc4ccccc34)=NN2C(C)=O)cc1OC (configuration not stated)
TGI (HS 578T breast): > 100 µM
TGI (PC-3 prostate): > 100 µM
TGI (786-0 renal): > 100 µM
TGI (NCI-H23 lung): 79 µM
TGI (M14 melanoma): 69.4 µM
TGI (SK-MEL-28 melanoma): > 100 µM
TGI (HOP-92 NSCLC): > 100 µM
TGI (MDA-N): 56.4 µM
TGI (OVCAR-4 ovarian): > 100 µM
TGI (RPMI-8226 leukemia): 54.4 µM

S=C1Nc2ccccc2SC1c1ccccc1 (configuration not stated)
TGI (HS 578T breast): 83.2 µM
TGI (PC-3 prostate): > 100 µM
TGI (786-0 renal): > 100 µM
TGI (NCI-H23 lung): > 100 µM
TGI (M14 melanoma): > 100 µM
TGI (SK-MEL-28 melanoma): > 100 µM
TGI (HL-60(TB) leukemia): > 100 µM
TGI (MDA-N): > 100 µM
TGI (OVCAR-4 ovarian): > 100 µM
TGI (RPMI-8226 leukemia): > 100 µM

N#CCCC1C(C#N)C2(Cl)CC1(Cl)C(Cl)=C2Cl (configuration not stated)
TGI (HS 578T breast): > 10 µM
TGI (PC-3 prostate): > 10 µM
TGI (NCI-H23 lung): > 10 µM
TGI (M14 melanoma): > 10 µM
TGI (SK-MEL-28 melanoma): > 10 µM
TGI (HL-60(TB) leukemia): > 10 µM
TGI (MDA-N): > 10 µM
TGI (OVCAR-4 ovarian): > 10 µM
TGI (RPMI-8226 leukemia): > 10 µM

CC1CCC(n2c3cnccc3c3cnc(Nc4ccc5c(n4)CCN(C(=O)CO)C5)nc32)CC1 (configuration not stated)
GI50 (M14 melanoma): 0.681 µM
TGI (M14 melanoma): > 100 µM
GI50 (HOP-92 NSCLC): > 100 µM
TGI (HOP-92 NSCLC): > 100 µM
GI50 (RPMI-8226 leukemia): 1.43 µM
TGI (RPMI-8226 leukemia): > 100 µM

O=C1c2ccccc2-c2c1c1ccccc1c(=O)n2CCNCCNCCNCCn1c2c(c3ccccc3c1=O)C(=O)c1ccccc1-2
GI50 (PC-3 prostate): 0.373 µM
TGI (PC-3 prostate): 1.33 µM
GI50 (M14 melanoma): 1.61 µM
TGI (M14 melanoma): 3.5 µM
GI50 (HL-60(TB) leukemia): 1.8 µM
GI50 (HOP-92 NSCLC): 2.9 µM
TGI (HOP-92 NSCLC): > 100 µM
GI50 (RPMI-8226 leukemia): 0.0499 µM

Cc1ccc(-c2n[nH]c(=O)n2N2C(=O)c3ccccc3C2=O)cc1
TGI (HS 578T breast): > 100 µM
TGI (PC-3 prostate): > 100 µM
TGI (786-0 renal): > 100 µM
TGI (NCI-H23 lung): > 100 µM
TGI (M14 melanoma): > 100 µM
TGI (SK-MEL-28 melanoma): > 100 µM
TGI (HL-60(TB) leukemia): > 100 µM
TGI (MDA-N): > 100 µM
TGI (RPMI-8226 leukemia): > 100 µM

COc1ccc2c(c1)/C(=C/CCN(C)C)c1ccccc1S2
TGI (HS 578T breast): > 100 µM
TGI (PC-3 prostate): > 100 µM
TGI (NCI-H23 lung): > 100 µM
TGI (M14 melanoma): > 100 µM
TGI (SK-MEL-28 melanoma): 38.8 µM
TGI (HL-60(TB) leukemia): > 100 µM
TGI (HOP-92 NSCLC): > 100 µM
TGI (MDA-N): > 100 µM

N#CC1(C#N)N[C@@H](c2ccsc2)[C@H]2C(=O)N(c3ccccc3)C(=O)[C@H]21
TGI (HS 578T breast): > 100 µM
TGI (PC-3 prostate): > 100 µM
TGI (786-0 renal): > 100 µM
TGI (NCI-H23 lung): > 100 µM
TGI (SK-MEL-28 melanoma): > 100 µM
TGI (HL-60(TB) leukemia): 42 µM
TGI (HOP-92 NSCLC): > 100 µM
TGI (MDA-N): > 100 µM
TGI (RPMI-8226 leukemia): 53.5 µM

c1csc(-c2ccc(-c3cccc4nsnc34)s2)c1
TGI (PC-3 prostate): > 100 µM
TGI (786-0 renal): > 100 µM
TGI (NCI-H23 lung): > 100 µM
TGI (M14 melanoma): > 100 µM
TGI (SK-MEL-28 melanoma): > 100 µM
TGI (MDA-N): > 100 µM
TGI (OVCAR-4 ovarian): > 100 µM
TGI (RPMI-8226 leukemia): > 100 µM

O=C1CCCc2cc3c(cc21)CC1(Cc2ccccc2C1)C3
TGI (HS 578T breast): > 100 µM
TGI (PC-3 prostate): > 100 µM
TGI (786-0 renal): 29.6 µM
TGI (NCI-H23 lung): > 100 µM
TGI (M14 melanoma): 25.3 µM
TGI (HL-60(TB) leukemia): 5.02 µM
TGI (HOP-92 NSCLC): 53 µM
TGI (OVCAR-4 ovarian): 63.9 µM
TGI (RPMI-8226 leukemia): 25.7 µM

CC(C)CCS(=O)(=O)OCCCCOS(=O)(=O)CCC(C)C
TGI (786-0 renal): > 100 µM
TGI (NCI-H23 lung): > 100 µM
TGI (M14 melanoma): 29.6 µM
TGI (SK-MEL-28 melanoma): > 100 µM
TGI (HL-60(TB) leukemia): > 100 µM
TGI (RPMI-8226 leukemia): > 100 µM

Nc1nc(Cl)cc(NCC2(CO)CC(=O)C2)n1
TGI (HS 578T breast): > 100 µM
TGI (PC-3 prostate): > 100 µM
TGI (786-0 renal): > 100 µM
TGI (NCI-H23 lung): > 100 µM
TGI (SK-MEL-28 melanoma): > 100 µM
TGI (HL-60(TB) leukemia): > 100 µM
TGI (HOP-92 NSCLC): > 100 µM
TGI (OVCAR-4 ovarian): > 100 µM
TGI (RPMI-8226 leukemia): > 100 µM

Cc1nc2n(c1/C=C1/C(=O)Nc3cccc(Cl)c31)CCS2
TGI (HS 578T breast): 53.9 µM
TGI (PC-3 prostate): > 100 µM
TGI (786-0 renal): > 100 µM
TGI (NCI-H23 lung): > 100 µM
TGI (M14 melanoma): > 100 µM
TGI (SK-MEL-28 melanoma): > 100 µM
TGI (HL-60(TB) leukemia): > 100 µM
TGI (HOP-92 NSCLC): 66.8 µM
TGI (MDA-N): > 100 µM
TGI (RPMI-8226 leukemia): > 100 µM

C[C@@H](NC(=O)[C@@H]1C[C@]1(C)COC(=O)c1cc([N+](=O)[O-])cc([N+](=O)[O-])c1)c1cccc2ccccc12
TGI (HS 578T breast): > 100 µM
TGI (PC-3 prostate): > 100 µM
TGI (786-0 renal): > 100 µM
TGI (NCI-H23 lung): > 100 µM
TGI (M14 melanoma): > 100 µM
TGI (SK-MEL-28 melanoma): > 100 µM
TGI (HOP-92 NSCLC): > 100 µM
TGI (MDA-N): > 100 µM
TGI (OVCAR-4 ovarian): > 100 µM
TGI (RPMI-8226 leukemia): > 100 µM

N#Cc1c(-c2ccccc2)/c(=C\Nc2cccc(C(F)(F)F)c2)c(=O)n2c1nc1ccccc12
TGI (PC-3 prostate): > 100 µM
TGI (786-0 renal): > 100 µM
TGI (NCI-H23 lung): > 100 µM
TGI (M14 melanoma): > 100 µM
TGI (SK-MEL-28 melanoma): > 100 µM
TGI (MDA-N): 91.4 µM
TGI (OVCAR-4 ovarian): > 100 µM
TGI (RPMI-8226 leukemia): 39.9 µM

[N-]=[N+]=NC[C@H]1OCO[C@H](CN=[N+]=[N-])[C@@H](OCCOCCCl)[C@@H]1OCCOCCCl
TGI (HS 578T breast): > 100 µM
TGI (PC-3 prostate): > 100 µM
TGI (786-0 renal): > 100 µM
TGI (NCI-H23 lung): > 100 µM
TGI (M14 melanoma): > 100 µM
TGI (SK-MEL-28 melanoma): > 100 µM
TGI (HL-60(TB) leukemia): > 100 µM
TGI (MDA-N): > 100 µM
TGI (OVCAR-4 ovarian): > 100 µM
TGI (RPMI-8226 leukemia): > 100 µM

c1ccc(N=c2sc3ccccc3nc2Nc2ccccc2)cc1
TGI (HS 578T breast): > 100 µM
TGI (PC-3 prostate): > 100 µM
TGI (786-0 renal): > 100 µM
TGI (NCI-H23 lung): > 100 µM
TGI (SK-MEL-28 melanoma): > 100 µM
TGI (HL-60(TB) leukemia): > 100 µM
TGI (HOP-92 NSCLC): > 100 µM
TGI (OVCAR-4 ovarian): > 100 µM
TGI (RPMI-8226 leukemia): > 100 µM

COc1cc2nc3n(c(=O)c2cc1OC)-c1ccc([N+](=O)[O-])cc1C3=O
TGI (HS 578T breast): > 100 µM
TGI (PC-3 prostate): > 100 µM
TGI (786-0 renal): > 100 µM
TGI (NCI-H23 lung): > 100 µM
TGI (M14 melanoma): > 100 µM
TGI (SK-MEL-28 melanoma): > 100 µM
TGI (HOP-92 NSCLC): > 100 µM
TGI (MDA-N): > 100 µM
TGI (OVCAR-4 ovarian): 63.9 µM
TGI (RPMI-8226 leukemia): > 100 µM

C=C(C)C(=O)OC1C/C(CO)=C\C(O)C/C(C)=C/C2OC(=O)C(=C)C21 (configuration not stated)
TGI (786-0 renal): 37.1 µM
TGI (M14 melanoma): 40.6 µM
TGI (SK-MEL-28 melanoma): 33.4 µM
TGI (HOP-92 NSCLC): 38.2 µM
TGI (OVCAR-4 ovarian): 63.4 µM
TGI (RPMI-8226 leukemia): 45.6 µM

Cc1ccc(N=NC(=Nc2ccccc2)c2ccc(N(CCC#N)CCC#N)cc2)cc1
TGI (HS 578T breast): > 100 µM
TGI (PC-3 prostate): 59.9 µM
TGI (786-0 renal): > 100 µM
TGI (NCI-H23 lung): 43.9 µM
TGI (M14 melanoma): > 100 µM
TGI (SK-MEL-28 melanoma): > 100 µM
TGI (HOP-92 NSCLC): 64.8 µM
TGI (MDA-N): > 100 µM
TGI (OVCAR-4 ovarian): > 100 µM
TGI (RPMI-8226 leukemia): > 100 µM

CN1C(=O)C2CCC(=O)N2c2cccnc21 (configuration not stated)
TGI (HS 578T breast): > 100 µM
TGI (786-0 renal): > 100 µM
TGI (NCI-H23 lung): > 100 µM
TGI (SK-MEL-28 melanoma): > 100 µM
TGI (HL-60(TB) leukemia): > 100 µM
TGI (MDA-N): > 100 µM
TGI (OVCAR-4 ovarian): > 100 µM
TGI (RPMI-8226 leukemia): > 100 µM
